The results in this text go back to patent US20080200428A1, “Antiproliferative Drug” (priority 2005, published 2008).

Marks after values point to notes of the source that are not given here.

One assay concerns B16/F10 melanoma cells. Briefly: In-vivo antiproliferative activity: liver metastases after intraspleen implant of B16/F10 melanoma. The arrangement: species or system BD2F1 mice. The following applies: for Animals free of macroscopically detectable liver metastases over total number of mice / Mice with metastases larger than 3 mm / Mice with more than 3 visible hepatic tumour nodules / Spleen weight: Day 21. On the procedure: BD2F1 mice weighing 18-20 g were implanted intraspleen (i.s) with 100.000 B16/F10 melanoma cells on Day 0, under sterile conditions and Zoletil® (70 mg/kg), anaesthesia, following surgical opening of peritoneum and spleen immobilisation. Tumour cells, suspended in diluted Matrigel® (150 μg/ml), were injected i.s. in a volume of 0.05 ml. The B16F10 melanoma cells were cultured in Modified Eagle Medium. Cells were maintained in a humidified 5% CO2 atmosphere at 37° C. Animals were then randomly divided into 5 groups (each of 7-8 female), implanted i.s. with 100.000 B16/F10 melanoma cells on Day 0, were treated i.v. (on Days 3, 6 and 9) with HA-MTX at 2, 1 and 0.50 mg/kg/day or MTX-Na at 8.5, 6 and 3 mg/kg/day. Doses are referred to equivalents of MTX. The data originate from 4 separate experiments.
The evaluation of livers and counting of liver metastases under a low power stereo microscope equipped with a calibrated grid was performed on Day 21. Livers were then stored in formaldehyde for preparation for light microscopy observations.

Assay [1] has as its system IGR-OV1 human ovary carcinoma cells. Briefly: In-vitro antiproliferative activity, MTT test. The format is cell-based. The following applies: 5 days treatment, MTT on day 6, read-out: IC50, concentration necessary to reduce cell growth to 50% of control. As for the experimental part:
(§1) Antiproliferative activity of the conjugates was determined on 2 lines of human mammary carcinoma (MCF-7, MDA-MB-231), and on 2 lines of human ovary carcinoma (SK-OV-3, IGR-OV1) with different Reduced Folate Carrier (RFC) expression, and on a non-tumour line originating from healthy mammary ductal epithelium (HBL-100 line). Cells were incubated in 96-well plates for 5 days in complete medium (consisting of DMEM/F12, with 10% FBS, foetal bovine serum, 1% L-glutamine 100× (200 mM) and 1% penicillin-streptomycin (Euroclone) for MCF-7, IGROV-1 and MDA-MB-231; RPMI-1640 with 10% FBS, foetal bovine serum, 1% L-glutamine 100× (200 mM) and 1% penicillin-streptomycin (Euroclone) for SKOV-1; McCoy's with 10% FBS, foetal bovine serum, 1% L-glutamine 100× (200 mM) and 1% penicillin-streptomycin (Sigma) for HBL-100 at 37° C. and controlled atmosphere (5% CO2), with MTX-Na or with conjugate; the conjugates were tested at doses equimolar with those of MTX-Na, in the range 1-30 nM. Cytotoxicity was determined on day 6 (after 5 days treatments) by the MTT test, by measuring cell viability as the cell metabolic capacity to transform the tetrazolium salt of MTT in the blue formazan, by mitochondrial dehydrogenases; the blue colour is read at 570 nm with a spectrophotometer. The following conjugates were tested.
Background: Tetrazolium dyes change colour on reduction, which living cells bring about.

Assay [2] relates to MCF-7 human mammary carcinoma cells. The assay is described as follows: In-vitro antiproliferative activity, MTT test. The format is cell-based. The following applies: 5 days treatment, MTT on day 6, read-out: IC50, concentration necessary to reduce cell growth to 50% of control. On the procedure: as §1
The test system of assay [3] is SK-OV-3 human ovary carcinoma cells. The assay is described as follows: In-vitro antiproliferative activity, MTT test. Type of assay: cell-based. The conditions noted are these: 5 days treatment, MTT on day 6, read-out: IC50, concentration necessary to reduce cell growth to 50% of control. On the procedure:
as §1

Assay [4] deals with HBL-100 non-tumour line from healthy mammary ductal epithelium. Briefly: In-vitro antiproliferative activity, MTT test. Type of assay: cell-based, human. The following applies: 5 days treatment, MTT on day 6, read-out: IC50, concentration necessary to reduce cell growth to 50% of control. On the procedure: as §1
Where [5] appears, read: 0.5 mg MTX/kg/die i.v. on days 3, 6, 9.
Setting [6] is: 1 mg MTX/kg/die i.v. on days 3, 6, 9.
Setting [7] is: 2 mg MTX/kg/die i.v. on days 3, 6, 9.
Where [8] appears, read: 3 mg MTX/kg/die i.v. on days 3, 6, 9.
[9] abbreviates: 6 mg MTX/kg/die i.v. on days 3, 6, 9.
Where [10] appears, read: 8.5 mg MTX/kg/die i.v. on days 3, 6, 9.

In the case of HA-MTX [Ex 18], in the assay with B16/F10 melanoma cells (setting [5]), the “Animals free of macroscopically detectable liver metastases over total number of mice” value (from here on “Animals free … over total number of mice”) is listed as 6/15**, the “Mice with metastases larger than 3 mm” value was found to be 13%, the “Mice with more than 3 visible hepatic tumour nodules” value is 27% and the Spleen weight is given as 155 ± 16 mg. Besides, in the assay on B16/F10 melanoma cells (setting [6]), the “Animals free … over total number of mice” value is on record as 9/16***, the “Mice with metastases larger than 3 mm” value is on record as 0%, the “Mice with more than 3 visible hepatic tumour nodules” value was found to be 31% and the Spleen weight came to 199 ± 27 mg. For the same molecule, in the assay on B16/F10 melanoma cells (setting [7]), the “Animals free … over total number of mice” value is 14/14***^§, the “Mice with metastases larger than 3 mm” value is listed as 0%^; 0%°, the “Mice with more than 3 visible hepatic tumour nodules” value is recorded as 0%^; 0%° and the Spleen weight was 150 ± 37 mg. In the assay on B16/F10 melanoma cells (1 and 0.5 mg/kg/day vs 6 and 3 mg/kg/day MTX-Na), the “Dose giving comparable liver metastasis reduction, as fraction of the MTX-Na dose” value was “⅙”. Moreover, in the assay with B16/F10 melanoma cells (both after i.v. and i.p. administration), the “Prevention of formation of liver metastasis” value is “effective in preventing the formation of liver metastasis”. For the same molecule, in the assay on B16/F10 melanoma cells (i.v. 2 mg/kg/day (MTX equivalents) on days 3,6,9), the “Effect on liver metastases of B16/F10 melanoma” value is on record as “complete disappearance of liver metastases”.
As to `CN(Cc1cnc2nc(N)nc(N)c2n1)c1ccc(C(=O)N[C@@H](CCC(=O)O)C(=O)O)cc1` [MTX-Na, methotrexate, reference compound], the IC50 in assay [1] worked out at 0.14 µM; in assay [2] it was 0.081 µM; in assay [3], 0.041 µM; in assay [4], 0.5 µM. The figures for the “Animals free … over total number of mice” value in the assay with B16/F10 melanoma cells (setting [8]), in the assay with B16/F10 melanoma cells (setting [9]) and with B16/F10 melanoma cells (setting [10]) were 6/16*, 7/14** and 8/16**, respectively. Moreover, the figures for the “Mice with metastases larger than 3 mm” value in the assay with B16/F10 melanoma cells (setting [8]), in the assay on B16/F10 melanoma cells (setting [9]) and in the assay on B16/F10 melanoma cells (setting [10]) were 19%, 0% and 0%, respectively. Besides, the “Mice with more than 3 visible hepatic tumour nodules” value in the assay with B16/F10 melanoma cells (setting [8]) is given as 38%; in the assay with B16/F10 melanoma cells (setting [9]), 21%; in the assay with B16/F10 melanoma cells (setting [10]), 13%. Also, the Spleen weight in the assay with B16/F10 melanoma cells (setting [8]) worked out at 227 ± 36 mg; with B16/F10 melanoma cells (setting [9]), 159 ± 7 mg; in the assay with B16/F10 melanoma cells (setting [10]), 149 ± 24 mg.
Regarding “6-O-acetyl-6-O-methotrexyl-hyaluronic acid [Ex 21]”, the IC50 worked out at 2.74 µM in assay [1], 1.97 µM in assay [2], 1.82 µM in assay [3] and 2.05 µM in assay [4].
The like results for “6-O-Butyryl-6-O-methotrexyl-hyaluronic acid [Ex 24]” were, in that order, 2.16 µM, 1.7 µM, 1.67 µM and 2.11 µM.
